Test results reported in patent publication US7332476B2, “Pyridyl substituted ketolide antibiotics” (Novartis AG, priority 2003, dated 2008).
Converted amounts (≈) assume the structure as drawn.

Experiments:
Experiment in all cases: MIC, broth microdilution (NCCLS)
[1] = system: Streptococcus pneumoniae Stpn_297-749; format: cell-based; parameters: MIC, strain ID N: unit not given here; conditions: for MIC: Table 5, Strain ID F (Table 4): S. pneumoniae Stpn_297-749 Pen R; for MIC, strain ID N: broth microdilution
Summary of the method: (§1)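 NCCLS broth microdilution with 2-fold serial drug dilutions (methanol stocks diluted in water); inoculum 3×10^5–7×10^5 CFU/ml in CAMHB, with 2-5% lysed horse blood for S. pneumoniae. Incubation 18-24 h at 35° C., ambient air, except S. pneumoniae (5-10% CO2). MIC is lowest concentration preventing visible growth.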

E. coli Esco_25922 = format: cell-based; conditions: Table 5, Strain ID M (Table 4): E. coli Esco_25922; unit assumed
Method: Strains. The bacterial isolates listed in Table 4 were cultivated from −70° C. frozen stocks by two consecutive overnight passages (P1, P2) at 35° C. on 5% blood agar (Remel, Lenexa, Kans.). Chocolate agar (Remel) is used for Haemophilus influenzae. H. influenzae and Streptococcus pneumoniae are incubated in 5-10% CO2
Drug Stock Preparation. To determine the amount of solvent to be used to give the desired final concentration, the formula “weight obtained in mg/final concentration in mg/ml” will be used. It will give the amount of solvent in ml needed to be added to give the desired concentration. For example, if 2.5 mg/ml is the desired concentration and the weight of compound is 13.7 mg, then the amount of solvent to be added is […]. Methanol is used as the solvent to dissolve the test compounds. Further dilution of stock is done in sterile, deionized water. Drug stocks are kept frozen at −70° C., protected from light.
Susceptibility Testing. MICs are determined by the broth microdilution method in accordance with the NCCLS guidelines. In brief, organism suspensions are adjusted to a 0.5 McFarland standard to yield a final inoculum between 3×10^5 and 7×10^5 CFU/ml. Drug dilutions and inocula are made in sterile, cation adjusted Mueller-Hinton Broth (CAMHB) (Remel) for all but S. pneumoniae [CAMHB with 2-5% lysed horse blood (Remel)] and H. influenzae [Haemophilus Test Medium (Remel)]. An inoculum volume of 100 μl is added to wells containing 100 μl of broth with 2-fold serial dilutions of drug. All inoculated microdilution trays are incubated in ambient air at 35° C. for 18-24 hours, except for S. pneumoniae, and H. influenzae (both at 5-10% CO2).
Following appropriate incubation, the MIC is determined and the MIC is defined as the lowest concentration of the drug that prevented visible growth.

[2] = system: Streptococcus pneumoniae Stpn_49619; format: cell-based; parameters: MIC, strain ID M: unit not given beside the values; conditions: for MIC: Table 5, Strain ID E (Table 4): S. pneumoniae Stpn_49619; for MIC, strain ID M: broth microdilution
Summary of the method: as §1

[3] = system: Streptococcus pneumoniae Stpn_Mef 5654; format: cell-based; conditions: Table 5, Strain ID J (Table 4): S. pneumoniae Stpn_Mef 5654; in µg/mL (unit assumed)
Summary of the method: as §1

[4] = system: S. pneumoniae Stpn_Erm 6849; format: cell-based, Streptococcus pneumoniae; conditions: for MIC: Table 5, Strain ID H (Table 4): S. pneumoniae Stpn_Erm 6849, unit assumed; for MIC, strain ID P: broth microdilution, in µg/mL (unit assumed)
Summary of the method: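 S. pneumoniae MIC by NCCLS broth microdilution in cation-adjusted Mueller-Hinton broth with 2-5% lysed horse blood, inoculum 3×10^5–7×10^5 CFU/ml, 2-fold drug dilutions. Incubated 18-24 hours at 35° C. in 5-10% CO2; MIC is lowest concentration preventing visible growth.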

[5] = system: Streptococcus pneumoniae Stpn_280-962; format: cell-based; parameters: MIC, strain ID O: unit not given beside the values; conditions: for MIC: Table 5, Strain ID G (Table 4): S. pneumoniae Stpn_280-962 Pen S; for MIC, strain ID O: broth microdilution
Summary of the method: as §1

[6] = system: Streptococcus pyogenes Stpy_8668; format: cell-based; parameters: MIC, strain ID G: unit not given beside the values; conditions: for MIC: Table 5, Strain ID D (Table 4): S. pyogenes Stpy_8668; for MIC, strain ID G: broth microdilution
Summary of the method: as §1

[7] = system: Staphylococcus epidermidis Step_14990; format: cell-based; conditions: in µg/mL (unit assumed); for MIC: Table 5, Strain ID A (Table 4): S. epidermidis Step_14990; for MIC, strain ID C: broth microdilution
Summary of the method: as §1

[8] = system: Streptococcus pneumoniae Stpn_Mef S 3427; format: cell-based; conditions: Table 5, Strain ID K (Table 4): S. pneumoniae Stpn_Mef S 3427
Summary of the method: as §1

[9] = system: Streptococcus pneumoniae Stpn_Erm S 4297; format: cell-based; conditions: for MIC: Table 5, Strain ID I (Table 4): S. pneumoniae Stpn_Erm S 4297; for MIC, strain ID Q: broth microdilution, in µg/mL (unit assumed)
Summary of the method: as §1

[10] = system: Haemophilus influenzae Hain_49247; format: cell-based; conditions: unit assumed; for MIC: Table 5, Strain ID L (Table 4): H. influenzae Hain_49247; for MIC, strain ID H: broth microdilution
[11] = system: Staphylococcus epidermidis Step_f50654; format: cell-based; conditions: in µg/mL (unit assumed); for MIC: Table 5, Strain ID B (Table 4): S. epidermidis Step_f50654 Pen S; for MIC, strain ID D: broth microdilution
Summary of the method: as §1

[12] = system: Enterococcus faecalis Enfa_29212; format: cell-based; conditions: for MIC: Table 5, Strain ID C (Table 4): E. faecalis Enfa_29212; for MIC, strain ID E: broth microdilution
Summary of the method: as §1

[13] = system: Enterococcus faecalis Enfa_bc 11148-2; format: cell-based; conditions: strain ID F; broth microdilution; in µg/mL (unit assumed)
Summary of the method: (§2)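 NCCLS broth microdilution; CAMHB / HTM (H. influenzae); inoc 3×10^5–7×10^5 CFU/ml; 35° C, 18-24 h, H. influenzae 5-10% CO2; MIC = no visible growth.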

[14] = system: Haemophilus influenzae Hain_953460299-3; format: cell-based; conditions: strain ID K; broth microdilution; in µg/mL (unit assumed)
Summary of the method: as §2

[15] = system: Haemophilus influenzae Hain_960730503-3; format: cell-based; conditions: strain ID I; broth microdilution; in µg/mL (unit assumed)
Summary of the method: as §2

[16] = system: Haemophilus influenzae Hain_960820544-3; format: cell-based; conditions: strain ID J; broth microdilution; in µg/mL (unit assumed)
Summary of the method: as §2

[17] = system: Haemophilus influenzae Hain_2762; format: cell-based; conditions: strain ID L; broth microdilution; in µg/mL (unit assumed)
Summary of the method: as §2

[18] = system: Staphylococcus aureus Stau_33591; format: cell-based; conditions: strain ID B; broth microdilution; unit assumed
Summary of the method: as §2

[19] = system: Staphylococcus aureus Stau_29213; format: cell-based; conditions: strain ID A; broth microdilution; in µg/mL (unit assumed)
Summary of the method: as §1

SMILES | MIC [1] | MIC (E. coli Esco_25922) | MIC [3] | MIC [4] | MIC [5] | MIC [7] | MIC [10] | MIC [11] | MIC [2] | MIC [6] | MIC [8] | MIC, strain ID N [1] | MIC, strain ID F [13] | MIC, strain ID K [14] | MIC, strain ID I [15] | MIC, strain ID J [16] | MIC, strain ID L [17] | MIC, strain ID B [18] | MIC, strain ID M [2] | MIC, strain ID P [4] | also measured
CC[C@H]1OC(=O)[C@H](C)C(=O)[C@H](C)[C@@H](OC2O[C@H](C)C[C@H](N(C)C)[C@H]2O)[C@@](C)(OC)C[C@@H](C)C(=O)[C@H](C)[C@H]2NC(=O)O[C@@H]21 (stereo partly drawn) [Compound 4266] | =0.05 | > 50 µg/mL | 0.2 | > 50 µg/mL | =0.05 | 3.13 | 25 µg/mL (≈ 41.8 µM) | 3.13 | – | – | – | – | – | – | – | – | – | – | – | – | MIC ([2]; unit assumed): 0.2 µg/mL (≈ 0.334 µM); MIC ([6]; unit assumed): 0.1 µg/mL (≈ 0.167 µM); MIC ([8]; in µg/mL (unit assumed)): 0.1; MIC ([9]; unit assumed): > 50 µg/mL; MIC ([12]; in µg/mL (unit assumed)): 1.56
CC[C@H]1OC(=O)[C@H](C)C(=O)[C@H](C)[C@@H](OC2O[C@H](C)C[C@H](N(C)C)[C@H]2O)[C@@](C)(OC)C[C@@H](C)C(=O)[C@H](C)[C@@H]2[C@@H]1OC(=O)N2CCCCn1cnc(-c2ccccc2)c1 (stereo partly drawn) [Compound 4710] | =0.5 | 50 µg/mL (≈ 62.7 µM) | 0.2 | 0.2 µg/mL (≈ 0.251 µM) | =0.5 | 0.1 | 3.13 µg/mL (≈ 3.93 µM) | 0.2 | =0.5 | =0.5 | =0.5 | – | – | – | – | – | – | – | – | – | MIC [9]: =0.05; MIC [12]: =0.05
CC[C@H]1OC(=O)[C@H](C)C(=O)[C@H](C)[C@@H](OC2O[C@H](C)C[C@H](N(C)C)[C@H]2O)[C@@](C)(OC)C[C@@H](C)C(=O)[C@H](C)[C@@H]2[C@@H]1OC(=O)N2CCCCc1ccnc2ccccc12 (stereo partly drawn) [Compound 4711] | =0.5 | 50 µg/mL (≈ 63.9 µM) | 0.1 | 6.25 µg/mL (≈ 7.99 µM) | =0.5 | 0.1 | 1.56 µg/mL (≈ 1.99 µM) | 0.1 | =0.5 | =0.5 | =0.5 | – | – | – | – | – | – | – | – | – | MIC ([9]; unit assumed): 0.2 µg/mL (≈ 0.256 µM); MIC [12]: =0.05
CC[C@H]1OC(=O)[C@H](C)C(=O)[C@H](C)[C@@H](OC2O[C@H](C)C[C@H](N(C)C)[C@H]2O)[C@@](C)(OC)C[C@@H](C)C(=O)[C@H](C)[C@H]2N(CCCCc3ccnc4ccccc34)C(=O)O[C@]12CC (stereo partly drawn) [Compound 7283] | =0.05 | 12.5 µg/mL (≈ 15.4 µM) | 0.4 | 0.4 µg/mL (≈ 0.494 µM) | =0.05 | – | – | 0.2 | =0.05 | =0.05 | =0.05 | – | – | – | – | – | – | – | – | – | –
C=C[C@]12OC(=O)N(CCCCn3cnc(-c4ccc(Cl)nc4)c3C)[C@@H]1[C@@H](C)C(=O)[C@H](C)C[C@](C)(OC)[C@H](OC1O[C@H](C)C[C@H](N(C)C)[C@H]1O)[C@@H](C)C(=O)[C@@H](C)C(=O)O[C@@H]2CC (stereo partly drawn) [XXXVII] | – | – | – | – | – | – | – | – | – | – | – | =0.05 | 0.78 | 6.25 | 12.5 | 6.25 | 1.56 | > 50 µg/mL | =0.05 | 0.78 | MIC, strain ID O [5]: =0.05; MIC, strain ID G [6]: =0.05; MIC, strain ID C [7]: 0.2; MIC, strain ID A [19]: 0.2; MIC, strain ID Q [9]: 0.2; MIC, strain ID H [10]: 6.25 µg/mL (≈ 7.16 µM); MIC, strain ID D [11]: 0.2; MIC, strain ID E ([12]; in µg/mL (unit assumed)): 0.1
C=C[C@]12OC(=O)N(CCCCn3cnc(-c4cccnc4Cl)c3)[C@@H]1[C@@H](C)C(=O)[C@H](C)C[C@](C)(OC)[C@H](OC1O[C@H](C)C[C@H](N(C)C)[C@H]1O)[C@@H](C)C(=O)[C@@H](C)C(=O)O[C@@H]2CC (stereo partly drawn) [XXXVI] | – | – | – | – | – | – | – | – | – | – | – | =0.05 | 1.56 | 6.25 | 6.25 | 6.25 | 1.56 | > 50 µg/mL | =0.05 | 0.78 | MIC, strain ID O [5]: =0.05; MIC, strain ID G [6]: =0.05; MIC, strain ID C [7]: 0.1; MIC, strain ID A [19]: 0.2; MIC, strain ID Q [9]: 0.1; MIC, strain ID H [10]: 3.13 µg/mL (≈ 3.65 µM); MIC, strain ID D [11]: 0.2; MIC, strain ID E ([12]; in µg/mL (unit assumed)): 0.1
C=C[C@]12OC(=O)N(CCCCn3cnc(-c4cnccc4OC)c3)[C@@H]1[C@@H](C)C(=O)[C@H](C)C[C@](C)(OC)[C@H](OC1O[C@H](C)C[C@H](N(C)C)[C@H]1O)[C@@H](C)C(=O)[C@@H](C)C(=O)O[C@@H]2CC (stereo partly drawn) [XXXV] | – | – | – | – | – | – | – | – | – | – | – | =0.05 | 0.78 | 6.25 | 6.25 | 6.25 | 1.56 | > 50 µg/mL | =0.05 | 0.78 | MIC, strain ID O [5]: =0.05; MIC, strain ID G [6]: =0.05; MIC, strain ID C [7]: 0.1; MIC, strain ID A [19]: 0.2; MIC, strain ID Q [9]: 0.2; MIC, strain ID H [10]: 6.25 µg/mL (≈ 7.32 µM); MIC, strain ID D [11]: 0.1; MIC, strain ID E ([12]; in µg/mL (unit assumed)): 0.1
